Laboratory results published in PMC12591170, “Glabridin‐Gold(I) Complex as a Novel Immunomodulatory Agent Targeting TrxR and MAPK Pathways for Synergistic Enhancement of Antitumor Immunity” (Advanced Science, 2025).
“Also recorded” adds a separate entry of the source.

Experiments:
[1] = system: MEK1/2; assay: CETSA and ITDR assay, MEK1/2; type: binding, human; settings: HepG2 proteins, 8 µM, ITDR at 78 °C
Description: The treated HepG2 cells in 10 cm culture dishes were collected and washed with PBS. The collected cells were repeatedly frozen and thawed for 3 times by liquid nitrogen and 37 °C water bath. Then, proteins were isolated by centrifugation. The isolated proteins were divided into different tubes and incubated with same concentration of 6d at different temperature. Western blot was applied for CETSA by analyzing the band intensity of different temperature groups.
The temperature, which results in significant band differences between 6d and control group, was selected for ITDR assay. The isolated proteins were divided into different tubes and incubated with different concentration of 6d at same temperature. The binding between 6d and target protein was assessed by analyzing the band intensity of different concentration groups.

[2] = Solubility by UV absorbance; type: physicochemical; settings: PBS: DMF = 200:1, 298K
Description: Weigh a certain amount of 6d, dissolve it in a PBS: DMF = 200:1 solution, and mix to obtain the high‐concentration solution. Then dilute the original solution to prepare solutions of different concentrations. The ultraviolet absorbance values at the maximum absorption wavelength (237 nm) were measured in sequence, and the standard curve was plotted (Figure S40, Supporting Information). Prepare the saturated 6d solution by the same method. After centrifugation, take the supernatant and dilute it 7 times.

[3] = system: 293T cells; assay: MTT assay, normal kidney cell line 293T; type: cell-based; settings: 72 h MTT assay, Mean ± SD
Description: All cells were incubated at 37 °C by DMEM complete medium (containing 1% penicillin−streptomycin and 12% FBS) in 5% CO2 incubator. 2–5 × 10^3 cells were cultured in 96‐well plates and each well contained 100 µL complete medium. OXA was dissolved in water, and all other complexes were dissolved in DMF. After cells adhered in the wells, different concentrations of complexes were diluted in 100 µL complete medium and added in the wells. The final volume in the each well was 200 µL and the content of DMF was maximum 0.5%. After 72 h incubation, the antiproliferative activity was tested by MTT assay.

[4] = system: PD-L1; assay: PD-L1 expression in HepG2 (western blot, immunofluorescence, flow cytometry); type: cell-based, human; settings: HepG2, 24 h
Description: (§1) HepG2 cells were incubated in 6 cm culture dishes and treated with different complexes. The treated cells were lysed with lysis buffer (RIPA:PMSF:phosphatase inhibitor:protease inhibitor = 100:1:1:1). The lysed cells were further broken by sonication, and proteins were isolated by centrifugation. The protein concentrations were detected by BCA assay. 10% SDS PAGE gel was usually applied to separate the different kDa of proteins, and more than 200 kDa of proteins were separated using 8% SDS PAGE gel. After seperation, proteins were transferred onto polyvinylidene difluoride (PVDF) membranes. The target proteins were labeled by various specific primary antibodies at 4 °C overnight. Then, the membranes were treated with anti‐rabbit or anti‐mouse secondary antibody for 2 h. Tris buffered saline with tween 20 (TBST) was applied to wash the membranes after each operation above. The target proteins’ bands were detected by the enhanced chemiluminescence (ECL) procedure.
(§2) 5 × 10^4 HepG2 cells were treated with complexes in 24‐well plates for 24 h. Subsequently, cells were fixed with 4% paraformaldehyde. Various specific antibodies were added for incubation at 4 °C overnight after cells were permeabilized with Triton X‐100 (except for membrane proteins) and blocked with BSA. Then, the cells were incubated with fluorescently‐labeled secondary antibodies in darkness for 2 h. After that, DAPI was added to stain nuclear in darkness. PBS was applied for washing after each operation above (Tris buffered saline (TBS) was applied for washing if phosphorylated protein was analyzed). The cell images were captured by the fluorescence microscopy.
4 × 10^5 HepG2 cells were incubated in 6‐well plates, and complexes were added in the wells. The cells were collected after incubation, and the treated cells were labeled with probes or fluorescently‐labeled antibodies. A flow cytometer was applied to analyze the labeled cells.

[5] = system: HepG2 cells; assay: DAMPs / ICD effect (CRT, HMGB1, ATP release); type: cell-based, human
Description: 6‐well plate was applied to incubate 2 × 10^5 HepG2 cells. […] After treatment, the liquid was collected for extracellular ATP release assay by ATP Assay kit.
as §1, §2

[6] = system: MAPK pathway (phosphorylated MEK1/2 and ERK1/2); assay: Western blot of MAPK pathway in HepG2; type: cell-based, human; settings: HepG2, 24 h
Description: as §1

[7] = Stability analysis by 1H NMR; type: physicochemical
Description: 5 mM of complex 6d was incubated with DMSO‐d6 or the mixed solution (DMSO‐d6 /D2O = 9:1) or the same mixed solution with 5 mM of GSH for different times (0 – 72 h), and the ^1H NMR spectra were acquired. The stability of AF was determined by the same method.

[8] = system: phosphorylated Akt; assay: Western blot of phosphorylated Akt in HepG2; type: cell-based, human; settings: HepG2, 24 h; GLA at 8 µM
Description: as §1

[9] = target: T1, TrxR (Homo sapiens, UniProt Q16881); assay: Intracellular TrxR activity (kit, probe) and TrxR expression in HepG2; type: cell-based
T1 construct: endogenous in cells; host or cells: HepG2
T1 sequence (Q16881 151-649 limits assumed): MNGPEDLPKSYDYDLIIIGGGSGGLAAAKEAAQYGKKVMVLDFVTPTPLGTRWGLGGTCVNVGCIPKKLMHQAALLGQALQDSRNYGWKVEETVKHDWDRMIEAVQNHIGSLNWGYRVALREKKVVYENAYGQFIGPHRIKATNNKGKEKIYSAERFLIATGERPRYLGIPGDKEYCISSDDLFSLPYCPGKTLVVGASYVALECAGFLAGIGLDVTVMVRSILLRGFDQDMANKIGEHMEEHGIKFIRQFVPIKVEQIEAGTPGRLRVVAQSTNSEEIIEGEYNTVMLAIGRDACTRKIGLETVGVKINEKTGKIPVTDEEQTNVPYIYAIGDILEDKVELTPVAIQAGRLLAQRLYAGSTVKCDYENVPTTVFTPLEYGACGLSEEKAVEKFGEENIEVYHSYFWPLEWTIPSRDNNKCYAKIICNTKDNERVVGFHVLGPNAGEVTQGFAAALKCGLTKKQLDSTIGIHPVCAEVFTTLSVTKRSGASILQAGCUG
Description: 1 × 10^6 HepG2 cells were cultured in 6 cm culture dishes, and treated with DMF (0.1%), AF (4 µM) or different concentrations of 6d (2, 4, 8 µM) after cell adhesion. 24 h later, the intracellular TrxR activity was analyzed by the TrxR activity detection kit.
In addition, intracellular TrxR activity was detected by TrxR probe. 5 × 10^4 HepG2 cells were seeded in 12‐well plate. After 24 h, the complete medium was removed, and the each well was washed twice by phosphate buffer saline (PBS). 10 µM TrxR probe (dissolved in PBS) was added for 1 h incubation. Then, the probe was removed, and washing twice was performed by PBS. The fluorescence microscopy was applied to capture the cell images under the channel of FITC.
as §1, with “The target proteins were labeled by various specific primary antibodies at 4 °C overnight. Then, the membranes were treated with anti‐rabbit or anti‐mouse secondary antibody for 2 h. Tris buffered saline with tween 20 (TBST) was applied to wash the membranes after each operation above.” left out

CCn1ccn(CCCCCOc2ccc([C@@H]3COc4c(ccc5c4C=CC(C)(C)O5)C3)c(OCCCCCn3ccn(CC)[c]3=[Au][Br])c2)[c]1=[Au][Br] [6d]
binding to MEK1/2 (CETSA, ITDR) [1]: significant binding | solubility [2]: 108 µg/mL | IC50 [3]: 5.14 ± 0.3 µM | PD-L1 expression (western blot) [4]: downregulated; also recorded: significantly inhibited | PD-L1 expression on the membrane surface ([4]; immunofluorescence and flow cytometry): reduced | time required for ATP release ([5]; HepG2, 8 µM, ATP assay kit): 48 h | CRT expression (western blot) ([5]; HepG2, 24 h): CRT upregulation | HMGB1 expression (western blot) ([5]; HepG2, 24 h): HMGB1 downregulation | ERK1/2 phosphorylation (western blot, Figure S49) [6]: downregulated ERK1/2 phosphorylation | phosphorylation of MEK1/2 and ERK1/2 (western blot) [6]: significantly inhibited | time after which 1H NMR spectra began to change / showed new peaks ([7]; 5 mM complex, DMSO-d6/D2O 9:1 containing GSH (5 mM)): 12 h | stability by 1H NMR ([7]; DMSO-d6, over 72 h): remained stable | stability by 1H NMR ([7]; DMSO-d6/D2O (v1/v2 = 9:1), over 72 h): remained stable | Akt phosphorylation (western blot) [8]: inhibited Akt phosphorylation | TrxR expression level (western blot) ([9]; HepG2, 24 h): did not downregulate TrxR expression levels | intracellular TrxR activity ([9]; HepG2, 24 h, 2, 4, 8 µM, TrxR probe and activity assay kit): suppressed TrxR activity
